In patent US20030138864A1, “Method for identifying an enzyme to design anti-cancer compounds” (priority 2001, published 2003):
Where a name gives a salt, the structure may show the parent alone. Read-outs that look alike come from different tables or passages of the source.

Experiments:
Type in all cases: cell-based
[1] = tested on: CFU-GM: human bematopoietic progenitor cells; assay: Growth inhibition (cytotoxicity, WST-1) of granulocyte progenitors expanded ex vivo (CFU-GM)
Experimental: (§1) The activation of the compounds is mediated by microsomal dipeptidase. The inhibitory activities of the compounds is determined against growth of the cells expressing a low level of microsomal dipeptidase, those expressing a high level of microsomal dipeptidase, and granulocyte progenitors that are expanded ex vivo. The human colon cancer cell line, HCT116 (American Type Culture Collection No. CCL-247), and granulocyte progenitors are used as the cells expressing only a low level of microsomal dipeptidase. A stable transfectant, HCT116/S5, into which the human microsomal dipeptidase cDNA (herafter called MDP) connected to the CMV promoter was transfected, is used as the cells expressing a high level of microsomal dipeptidase. The dipeptidase cDNA (Satoh et al. Biotechnol. Prog. 10 (2), 134-140 (1994)) and other references) and the cloning procedures as mentioned are known in the art. HCT116, HCT116/S5, and granulocyte porogenitors are cultured in the absence and presence of the drugs. […] The IC50 values are determined and compared among HCT116, HCT116/S5, and granulocyte porogenitors. Although time duration of the exposure of the cells to the drugs varies depending on the cells and drugs, it can be 24 hr, 96 or 168 hr.
CD34-positive mononuclear cells derived from the human umbilical cord blood and bone marrow (Veritas Co, Tokyo, Japan, Catalog No.CB009F, ABM019F) were cultured on a confluent monolayer of MS5 (Itoh, K., et al. Reproducible establishment of hematopoietic supportive stromal cells from murine bone marrow. Exp. Hematol. 17, 145-153 (1989)). Mouse stromal cell lines in alpha MEM medium (Life Technologies, Gaithersburg, USA, Catalog No.12571-0063) supplemented with 10% (v/v) horse serum (HS) (Stem Cell Technologies, Vancouver, Canada, Catalog No. 06750), 10% (v/v) fetal bovine serum (FBS) (Stem Cell Technologies, Vancouver, Canada, Catalog No.06450), 50 ng/ml Flt3 ligand (PeproTec EC., London, UK., Catalog No. 300-19), 100 ng/ml SCF (PeproTech EC, London, UK., Catalog No. 300-07), and 50 ng/ml TPO (PeproTech EC, London, England, Catalog No. 300-18) at 37° C. under 5% CO2 in humidified air. Floating hematopoietic cells were collected and stained by monoclonal antibodies against PerCP-anti-CD34 (BD pharMingen, San Diego, USA, Catalog No.340430), PE-anti-CD13 (BD pharMingen, San Diego, USA, Catalog No. 30525X) and FlTC-anti-15(BD pharMingen, SanDiego, USA, Catalog No. PM30525X). Five microlitter of each antibody was added to a […] of cell suspension and incubated at 4° C. for 25 min. After washing with PBS containing 10% (v/v) FCS, the expression of CD antigens were detected by using FACSCalibur (Becton Dickinson, Franklin Lakes, N.J., USA) according to the FACSCalibur Traing mannual (FACStation ver1.1. Becton Dickinson, Franklin Lakes, N.J., USA.). […]

[2] = tested on: HCT116/S5: HCT116 transfected with the human microsomal dipeptidase cDNA; assay: Growth inhibition (cytotoxicity, WST-8) of HCT116/S5 cells expressing a high level of microsomal dipeptidase
Experimental: as §1
Transfection of the DNA was carried out by using TransIT-LT2 (PanVera, Madison, USA, Calatog No. MIR2320) according to the manufacturer's instruction. The resulting transfectants were cultivated in MaCoy5A medium (Sigma, St Louis, USA, Catalog No. M8403) supplemented with 10% (v/v) fetal bovine serum and 1 mg/ml of geneticin disulfate (Wako, Osaka, Japan, Catalog No. 535-24624). The cells that grew in the presence of 1 mg/ml G418 were collected and cultivated in MaCoy5A medium.
(§2) By using 96-multi well plates, approximately 2×10^3 cells per well of the HCT116 bearing pRC/CMV and HCT116S5 carrying pRC/CMV-MDP were cultured in 200 μl of McCoy5A medium supplemented with 10% FBS in the presence or absence of the indicated concentrations of the drugs at 37° C. under 5% CO2 in humidified air. The cells were exposed to drugs for 24 hr (taxol, camptothecins and their prodrugs) or 96 hr (DMDC and its compounds). When the drug exposure time to the cells was 24 hr, culture medium containing drugs were removed, and the cells were washed and suspended in the fresh medium without drugs and further cultured at 37° C. under 5% CO2 in humidified air for the indicated days. Then, 10 μl of WST-8 (Cell Counting Kit-8, Wako, Osaka, Japan, Catalog No.343-07623) were added to the cultures, and the cells were further incubated at 37° C. for 1 or 2 hr. Cell growth inhibition was calculated as IC50 values according to optical densities at 450 nm and at 655 nm. To examine the effects of drugs on granulocyte progenitors, the granulocyte progenitors, which were expanded on a monolayer of MS-5 for 7 days, were collected and washed with RPMI1640 medium. Approximately 5000 cells were suspended in 200 μl of RPMI medium supplemented with 10% FBS and 50 ng/ml of G-CSF in the presence or absence of drugs and cultured in the presence of drugs for 24 hr (taxol, camptothecins and their prodrugs) or 7 days (DMDC and its prodrug) at 37° C. under 5% CO2 in humidified air. When the exposure time of drugs to the cells was 24 hr, the drugs were removed at 24 hr after addition of drugs by washing the cells with the above medium, and the cells were further cultured for 6 days in the same medium without drugs. Therafter, 20 μl of WST-1 (Roche Diagnostics, Mannheim, Germany, Catalog No. 1644807) were added to the cultures, and the cells were further incubated at 37° C. for 6 hr. Cell growth inhibition was calculated as IC50 values according to optical densities at 450 nm and at 655 nm.

[3] = tested on: HCT116: human colon cancer cell line; assay: Growth inhibition (cytotoxicity, WST-8) of HCT116 cells expressing only a low level of microsomal dipeptidase
Experimental: The activation of the compounds is mediated by microsomal dipeptidase. The inhibitory activities of the compounds is determined against growth of the cells expressing a low level of microsomal dipeptidase, those expressing a high level of microsomal dipeptidase, and granulocyte progenitors that are expanded ex vivo. […] A stable transfectant, HCT116/S5, into which the human microsomal dipeptidase cDNA (herafter called MDP) connected to the CMV promoter was transfected, is used as the cells expressing a high level of microsomal dipeptidase. […] HCT116, HCT116/S5, and granulocyte porogenitors are cultured in the absence and presence of the drugs. […] The IC50 values are determined and compared among HCT116, HCT116/S5, and granulocyte porogenitors.
Transfection of the DNA was carried out by using TransIT-LT2 (PanVera, Madison, USA, Calatog No. MIR2320) according to the manufacturer's instruction. […] The cells that grew in the presence of 1 mg/ml G418 were collected and cultivated in MaCoy5A medium.
as §2, with “Then, 10 μl of WST-8 (Cell Counting Kit-8, Wako, Osaka, Japan, Catalog No.343-07623) were added to the cultures, and the cells were further incubated at 37° C. for 1 or 2 hr. Cell growth inhibition was calculated as IC50 values according to optical densities at 450 nm and at 655 nm.” left out, “drugs.” for “drugs. Therafter, 20 μl of WST-1 (Roche Diagnostics, Mannheim, Germany, Catalog No. 1644807) were added to the cultures, and the cells were further incubated at 37° C. for 6 hr. Cell growth inhibition was calculated as IC50 values according to optical densities at 450 nm and at 655 nm.”

[4] = drug exposure time, 24 hr, then cultured for 6 days without drugs, read-out: Cytotoxicity (IC50 in nM) CFU-GM
[5] = drug exposure time, 24 hr, then drug removed and cells cultured further, read-out: Cytotoxicity (IC50 in nM) HCT116/S5
[6] = drug exposure time, 24 hr, then drug removed and cells cultured further, read-out: Cytotoxicity (IC50 in nM) HCT116

## CCCCCN1C=Nc2cccc3nc4c(c1c23)Cn1c-4cc2c(c1=O)COC(=O)[C@@]2(CC)OC(=O)CC[C@@H](NC(=O)[C@@H](N)Cc1ccccc1)C(=O)O [Example 49-3, (9S)-9-ethyl-9-[(L)-phenylalanyl-(D)-γ-glutamyloxy]-1-pentyl-1H,12H-pyrano[3″,4″:6′,7′]-indolizino[1′,2′:6,5]pyrido[4,3,2-de]quinazoline-10,13(9H,15H)-dione hydrochloride]
[1]; [4]
  IC50: 250 nM
[2]; [5]
  IC50: 2.9 nM
[3]; [6]
  IC50: > 50 nM

## CCc1c2c(nc3ccc(O)cc13)-c1cc3c(c(=O)n1C2)COC(=O)[C@]3(O)CC [SN 38, reference compound]
[1]; [4]
  IC50: 1.8 nM
[2]; [5]
  IC50: 2.2 nM
[3]; [6]
  IC50: 3.7 nM

## CCCCCN1C=Nc2cccc3nc4c(c1c23)Cn1c-4cc2c(c1=O)COC(=O)[C@@]2(CC)OC(=O)CC[C@@H](NC(=O)[C@@H](N)CC(C)C)C(=O)O [Example 49-4, (9S)-9-ethyl-9-[(L)-leucyl-(D)-γ-glutamyloxy]-1-pentyl-1H,12H-pyrano[3″,4″:6′,7′]-indolizino[1′,2′:6,5]pyrido[4,3,2-de]quinazoline-10,13(9H,15H)-dione hydrochloride]
[2]; [5]
  IC50: 2.1 nM
[3]; [6]
  IC50: 15 nM

## CCCCCN1C=Nc2c3c(nc4cccc1c24)-c1cc2c(c(=O)n1C3)COC(=O)[C@@]2(CC)OC(=O)C[C@@H](NC(=O)[C@@H](N)CC1CCCCC1)C(=O)O [Example 49-11, (9S)-9-ethyl-9-[(L)-cyclohexylalanyl-(D)-β-aspartyloxy]-1-pentyl-1H,12H-pyrano[3″,4″:6′,7′]indolizino[1′,2′:6,5]pyrido[4,3,2-de]quinazoline-10,13(9H,15H)-dione hydrochloride]
[1]; [4]
  IC50: 120 nM
[2]; [5]
  IC50: 13 nM
[3]; [6]
  IC50: > 50 nM

## CCc1c2c(nc3ccc(O)cc13)-c1cc3c(c(=O)n1C2)COC(=O)[C@@]3(CC)OC(=O)CC[C@@H](NC(=O)[C@@H](N)Cc1ccccc1)C(=O)O [Example 39, 7-ethyl-10-hydroxy-20-O—[(S)-phenylalanyl-γ-(R)-glutamyl]-20(S)-camptothecin hydrochloride]
[1]
  IC50: 20 nM
[2]; [5]
  IC50: 2.8 nM
[3]; [6]
  IC50: 23 nM

## C=C1C(n2ccc(NC(=O)CC[C@@H](NC(=O)[C@@H](N)Cc3ccc(-c4ccccc4)cc3)C(=O)O)nc2=O)O[C@H](CO)[C@H]1O (stereo partly shown) [Example 16]
[1]; drug exposure time, 168 hr (7 days), read-out: Cytotoxicity (IC50 in nM) CFU-GM
  IC50: 2.8 nM
[2]; drug exposure time, 96 hr, read-out: Cytotoxicity (IC50 in nM) HCT116/S5
  IC50: 0.23 nM
[3]; drug exposure time, 96 hr, read-out: Cytotoxicity (IC50 in nM) HCT116
  IC50: 1.7 nM

## CCCCCN1C=Nc2c3c(nc4cccc1c24)-c1cc2c(c(=O)n1C3)COC(=O)[C@@]2(CC)OC(=O)CC[C@@H](NC(=O)[C@@H](N)CC1CCCCC1)C(=O)O [Example 49-2, (9S)-9-ethyl-9-[(L)-cyclohexylalanyl-(D)-γ-glutamyloxy]-1-pentyl-1H,12H-pyrano[3″,4″:6′,7′]indolizino[1′,2′:6,5]pyrido[4,3,2-de]quinazoline-10,13(9H,15H)-dione hydrochloride]
[1]; [4]
  IC50: 31 nM
[2]; [5]
  IC50: 2.6 nM
[3]; [6]
  IC50: 18 nM

## CC[C@@]1(OC(=O)CC[C@@H](NC(=O)[C@H](N)Cc2c[nH]c3ccccc23)C(=O)O)C(=O)OCc2c1cc1n(c2=O)Cc2cc3ccccc3nc2-1 [Example 31, 20-O—[(R)-tryptophyl-γ-(R)-glutamyl]-20(S)-camptothecin hydrochloride]
[1]
  IC50: 18200 nM
[3]; [6]
  IC50: 3 nM

## C=C1C(n2ccc(NC(=O)CC[C@@H](NC(=O)[C@@H](N)Cc3ccc4ccccc4c3)C(=O)O)nc2=O)O[C@H](CO)[C@H]1O (stereo partly drawn) [Example 17, (2R)-((2S)-Amino-3-naphthalen-2-ylpropionylamino)-4-[1-((4S)-hydroxy-(5R)-hydroxymethyl-3-methylenetetrahydrofuran-2-yl)-2-oxo-1,2-dihydropyrimidin-4-ylcarbamoyl]butyric acid]
[1]
  IC50: 1.1 nM
[2]
  IC50: 0.098 nM
[3]
  IC50: 0.99 nM

## CCCCCN1C=Nc2cccc3nc4c(c1c23)Cn1c-4cc2c(c1=O)COC(=O)[C@@]2(CC)OC(=O)CC[C@H](NC(=O)[C@@H](N)Cc1c[nH]c2ccccc12)C(=O)O [Example 49-1, (9S)-9-ethyl-9-[(L)-tryptophyl-(L)-γ-glutamyloxy]-1-pentyl-1H,12H-pyrano[3″,4″:6′,7′]indolizino[1′,2′:6,5]pyrido[4,3,2-de]quinazoline-10,13(9H,15H)-dione hydrochloride]
[1]; [4]
  IC50: 61 nM
[2]; [5]
  IC50: 3.3 nM
[3]; [6]
  IC50: 33 nM
